# Marks after values point to notes of the source that are not given here.
# Assays:
# [1] = design: species or system CD-1 mice; conditions: mouse, in vivo, iv
# [2] = design: species or system CD-1 mice; conditions: mouse, in vivo, iv; remark: listed apart in the source
# [3] = design: species or system CD-1 mice; conditions: mouse, in vivo, iv; remark: listed apart in the source
# [4] = design: species or system CD-1 mice; conditions: mouse, in vivo; for Blood to Brain Influx Ki: iv
# [5] = assay type: physicochemical; conditions: pH 7.5
# [6] = Saturability of brain uptake; design: species or system CD-1 mice; conditions: mouse, in vivo, iv
# [7] = design: species or system CD-1 mice; conditions: mouse, in vivo, iv; remark: listed apart in the source
# [8] = in vivo; cited from earlier work
Substance,Half-Time Serum Clearance t1/2 [1] [min],"125I-IRA remaining intact, Serum, 10 min [2] [%]","125I-IRA remaining intact, Serum, 60 min [2]","125I-IRA remaining intact, Whole Brain, 10 min [2] [%]",Degradation (loss of precipitable 125I-IRA) in serum from 10 to 60 min [2],Degradation (loss of precipitable 125I-IRA) in whole brain from 10 to 60 min [2],Capillary Depletion: %Parenchyma (percent of IRA reaching the brain found in parenchyma vs capillaries) [3] [%],Percent of IRA reaching the brain trapped in the capillaries [3] [%],Initial Volume of Distribution in Brain Vi [4] [µL/g],Blood to Brain Influx Ki [4],Lipid Solubility Partition Coefficient [5],Log Partition Coefficient (Log P) [5],Capillary Depletion: Capillary (capillary/serum ratio) [3] [µL/g],Capillary Depletion: Parenchyma (parenchyma/serum ratio) [3] [µL/g],"Serum radioactivity, Without Unlabeled IRA [6] [cpm/μL]","Whole Brain brain/serum ratio, Without Unlabeled IRA [6] [µL/g]",Peak percent of injected 125I-IRA taken up per gram brain tissue (%Inj/g) [7] [%],"125I-IRA remaining intact, Whole Brain, 60 min [2]",Percentage of injected dose entering the brain (%Inj/g) [8] [%]
HAEGTFTSDVSSYLEGQAAK^aEFIAWLVRGRG-OH [Liraglutide],167.22,101.2 ± 0.062,100.18 ± 0.244^a %,100.1 ± 4.206,less than 2%,less than 12%,28.7,71.3,2.434 ± 0.5977,ns,–,–,–,–,–,–,–,–,–
HXEGTFTSDVSSYLEGQAAK^bEFIAWLVRGRG-OH [Semaglutide],149.31,100.0 ± 0.031,98.91 ± 0.029^a %,95.55 ± 1.139,less than 2%,less than 12%,–,–,-0.340 ± 0.3285,ns,0.0353 ± 0.0016,−1.452 ± 0.0199,0.434 ± 0.056,-0.850 ± 0.533,692.1 ± 55.27,9.637 ± 0.308,–,–,–
YXEGTFTSDYSIYLDKQAAXEFVC ^*WLLAGGPSSGAPPPSK-NH2 [Peptide 20],43,100.16 ± 0.120,93.80 ± 1.850^a %,99.4 ± 2.070,–,–,43.6,56.4,0.4075 ± 0.2728,–,0.0057 ± 0.0008,−2.249 ± 0.0671,0.796 ± 0.252,0.615 ± 0.807,217.3 ± 7.176,9.51 ± 0.421,0.05,–,–
YXEGTFTSDYSIYLDKQAAXEFVNWLLAGGPSSGAPPPSC-NH2 [Peptide 17],39.61,95.77 ± 0.350,81.20 ± 1.960^a %,78.98 ± 3.930,–,–,73.2,–,1.057 ± 0.1876,0.3489 ± 0.0228 µL/g/min,0.0052 ± 0.0049,−2.564 ± 0.5921,0.543 ± 0.178,1.482 ± 0.462,81.33 ± 6.720,11.41 ± 0.528,0.15,52.91 ± 5.030^a %,–
YXEGTFTSDYSIYLDKQAAXEFVNWLLAGGPSSGAPPPSK-NH2 [DA3-CH],42.57,93.26 ± 1.110,73.65 ± 3.138^a %,71.59 ± 12.14,19.6%,44.9%,86.02,–,2.186 ± 0.5638,0.3922 ± 0.0668 µL/g/min,0.0048 ± 0.0015,−2.325 ± 0.1318,0.637 ± 0.073,3.918 ± 0.993,65.07 ± 6.275,20.86 ± 1.943,0.08,26.71 ± 17.23^a %,–
YXEGTFTSDYSIYLDKQAAXEFVNWLLAGGPSSGAPPPSK-NH2 [Peptide 18],32.37,99.85 ± 0.020,90.78 ± 4.440%,107.8 ± 3.37,–,–,–,–,0.2034 ± 0.1134,ns,0.2493 ± 0.0239,−0.604 ± 0.0418,0.764 ± 0.092,-0.306 ± 0.219,–,7.18 ± 0.202,–,–,–
YXEGTFTSDYSIYLDKQAAXEFVNWLLAGGPSSGAPPPSKKKKKK-NH2 [DA-JC4],151.94,85.66 ± 1.866,63.32 ± 1.987^a %,69.63 ± 16.36,–,–,89.7,–,2.495 ± 0.8554,0.6680 ± 0.1089 µL/g/min,0.0030 ± 0.0008,−2.520 ± 0.1184,1.129 ± 0.597,9.855 ± 2.751,29.32 ± 2.014,15.10 ± 1.243,0.17,47.99 ± 18.71%,–
"leptin: hormone crossing the BBB, literature comparison",–,–,–,–,–,–,–,–,–,–,–,–,–,–,–,–,–,–,0.171

# Reference: PMC7606641 (Biochemical pharmacology, 2020)
